Values of other authors, collected in US20240358668A1, “METHODS AND CO[…] AM[…] CARD[…] USING (R)-2-AMINO-3-PH[…]” (AXSOME THERAPEUTICS, INC., priority 2021, published 2024).

Settings: prescribing information; or potentially higher; cited from earlier work

Question: Which “increase in blood pressure” value does the source give for COC(=O)[C@H](c1ccccc1)[C@H]1CCCCN1 [Focalin, dexmethylphenidate] here?
Answer: Its value is 2-4 mm Hg.
